The text below walks through data of ChEMBL document CHEMBL6078703, “Discovery of Novel Thiophene-Based Baloxavir Derivatives as Potent Cap-Dependent Endonuclease Inhibitors for Influenza Treatment” (J Med Chem, 2024).

Data set [1] concerns Influenza A virus. Briefly: Antiviral activity against influenza strain A/WSN/1933 (H1N1) infected in MDCK cells assessed as reduction of virus-induced cytopathic effect measured after 2 days incubation. It counts as functional, organism-based. Conditions: 48 h. In general terms: Cytopathic effects are the visible damage that an infection or toxin causes in cultured cells.
The test system of data set [2] is Influenza A virus. The experiment in a line: Antiviral activity against influenza strain A/Aichi/ 2/1968 (H3N2) infected in MDCK cells assessed as reduction of virus-induced cytopathic effect measured after 2 days incubation. Format: functional, organism-based. The note with it: 48 h.
A short description of data set [3]: Cytotoxicity against dog MDCK cells assessed as cell viability measured after 48 hrs by CCK-8 assay. It counts as toxicity, cell-based, Canis lupus familiaris. A general note: Tetrazolium assays rely on reduction of a dye to a coloured formazan, in cell work by metabolically active cells.
Data set [4] in a line: Selectivity index, ratio of CC50 for dog MDCK cells to EC50 for antiviral activity against influenza strain A/WSN/1933 (H1N1) infected in MDCK cells. Format: toxicity, cell-based. The note with it: read-out: Selectivity Index.
Data set [5] is described as follows: Selectivity index, ratio of CC50 for dog MDCK cells to EC50 for antiviral activity against influenza strain A/Aichi/ 2/1968 (H3N2) infected in MDCK cells. It counts as toxicity, cell-based. The note with it: read-out: Selectivity Index.
Data set [6] can be described thus: Metabolic stability in human liver microsomes assessed as half life measured up to 60 mins by LC-MS/MS analysis. Format: ADME, Microsome. A general note: Liver microsomes are vesicles of endoplasmic reticulum, rich in cytochrome P450 enzymes.
Data set [7] is described as follows: Metabolic stability in mouse liver microsomes assessed as half life measured up to 60 mins by LC-MS/MS analysis. Format: ADME, Microsome.
A short description of data set [8]: Metabolic stability in human liver microsomes assessed as intrinsic clearance measured up to 60 mins by LC-MS/MS analysis. The note with it: read-out: CLH. Format: ADME, Microsome.
Data set [9] in a line: Metabolic stability in mouse liver microsomes assessed as intrinsic clearance measured up to 60 mins by LC-MS/MS analysis. It counts as ADME, Microsome. The note with it: read-out: CLH.

pEC50: −log10 of the molar value. Bounds are passed on as bounds.

A word on the pEC50: it is −log10 of the EC50, conventionally taken in molar units. A word on the CC50: it is the concentration that lowers cell viability or growth by half. Turning to `O=C1c2c(O)c(=O)ccn2N([C@H](c2ccc(F)c(F)c2)c2ccc(-c3ccccc3)s2)[C@@H]2COCCN12`, the pEC50 in the data set on Influenza A virus [1] is 7.69; in the data set on Influenza A virus [2] it was 8.43. Moreover, the CC50 at 48 h in [3] is 48.5 µM. Further, the selectivity ratio in data set [4] is 2380; in data set [5], 12900.
On the same counts, the results for `O=C1c2c(O)c(=O)ccn2N([C@H](c2ccccc2)c2cccs2)[C@@H]2COCCN12` are 7.44, 7.33, above 50 µM, above 1370 and above 1070.
On the same counts, the results for `O=C1c2c(O)c(=O)ccn2N([C@@H](c2ccc(F)c(F)c2)c2cc3ccccc3s2)[C@@H]2COCCN12` are 7.37, 8.22, above 50 µM, above 1180 and above 8360.
On the same counts, the results for `O=C1c2c(O)c(=O)ccn2N([C@@H](c2ccc(F)c(F)c2)c2ccc(Br)s2)[C@@H]2COCCN12` are 7.52, 7.50, 19.7 µM, 652 and 623.
As to `O=C1c2c(O)c(=O)ccn2N([C@@H](c2ccc(Br)c(Br)c2)c2cccs2)[C@@H]2COCCN12`, the pEC50 was 7.45 with Influenza A virus [1] and 8.16 in the data set with Influenza A virus [2]. In data set [3], the CC50 at 48 h was above 50 µM. In addition, the selectivity ratio in data set [4] was above 1400; in data set [5], above 7250.
Turning to `O=C1c2c(O)c(=O)ccn2N([C@H](c2cccs2)c2cc(F)c(F)c(F)c2F)[C@@H]2COCCN12`, the results for the pEC50 in the data set with Influenza A virus [1] and in the data set on Influenza A virus [2] were 7.90 and 7.86, respectively. Moreover, in data set [3], the CC50 at 48 h is above 50 µM. In addition, the selectivity ratio was above 4020 in data set [4] and above 3630 in data set [5].
As usually defined, the half-life is the time in which the quantity being followed falls by half. As to `O=C1c2c(O)c(=O)ccn2N([C@@H](c2ccc(F)cc2)c2cccs2)[C@@H]2COCCN12`, the pEC50 in the data set with Influenza A virus [1] is 8.30; in the data set with Influenza A virus [2], 8.78. Besides, the CC50 at 48 h in [3] is 37.6 µM. Also, the selectivity ratio came to 7440 in data set [4] and 22800 in [5]. For the same compound, the half-life in data set [6] came out at 12.8 h; in data set [7] it was 23.1 h. Besides, the CLint scaled in [8] was 1.62 mL/min/kg; in data set [9], 3.96 mL/min/kg.
`O=C1c2c(O)c(=O)ccn2N([C@@H](c2cc(F)c(F)c(F)c2)c2cccs2)[C@@H]2COCCN12`: the pEC50 in the data set with Influenza A virus [1] was 8.03; in the data set with Influenza A virus [2], 8.27. Also, in data set [3], the half-maximal cytotoxic concentration (CC50) at 48 h is above 50 µM. In addition, the selectivity ratio in [4] is above 5350; in data set [5], above 9210.
For `O=C1c2c(O)c(=O)ccn2N([C@H](c2ccc(Br)c(Br)c2)c2cccs2)[C@@H]2COCCN12`, the pEC50 in the data set with Influenza A virus [1] was 7.79; with Influenza A virus [2], 7.75. Moreover, the CC50 at 48 h in [3] amounted to 24.9 µM. The selectivity ratio in data set [4] came to 1540; in [5], 1410.
The like results for `O=C1c2c(O)c(=O)ccn2N([C@H](c2cc(F)c(F)c(F)c2)c2cccs2)[C@@H]2COCCN12` were, in that order, 8.72, 7.66, 26 µM, 13600 and 1190.
For the compound `O=C1c2c(O)c(=O)ccn2N([C@H](c2ccc(F)c(F)c2)c2cc3ccccc3s2)[C@@H]2COCCN12`, the pEC50 in the data set with Influenza A virus [1] is 7.68; in the data set on Influenza A virus [2], 7.69. The CC50 at 48 h in [3] is above 50 µM. For the same compound, the selectivity ratio in [4] is above 2400; in [5] it was above 2460.
The like results for `O=C1c2c(O)c(=O)ccn2N([C@H](c2cccc(F)c2)c2cccs2)[C@@H]2COCCN12` were, in that order, 8.46, 7.58, 34.3 µM, 9840 and 1320.
On the same counts, the results for `O=C1c2c(O)c(=O)ccn2N([C@@H](c2ccc(F)c(F)c2)c2ccc(Cl)s2)[C@@H]2COCCN12` are 7.53, 7.28, 19.4 µM, 663 and 373.
On the same counts, the results for `Cc1ccc([C@@H](c2cccs2)N2[C@@H]3COCCN3C(=O)c3c(O)c(=O)ccn32)cc1C` are 8.18, 8.75, 28 µM, 4190 and 15600.
For the compound `O=C1c2c(O)c(=O)ccn2N([C@H](c2ccc(F)cc2)c2cccs2)[C@@H]2COCCN12`, the pEC50 with Influenza A virus [1] was 8.50. Moreover, in data set [4], the selectivity ratio turned out to be 8390.
As for `O=C1c2c(O)c(=O)ccn2N([C@H](c2ccc(F)c(F)c2)c2ccc(Cl)s2)[C@@H]2COCCN12`, the figures for the pEC50 in the data set on Influenza A virus [1] and with Influenza A virus [2] were 7.80 and 7.51, respectively. The CC50 at 48 h in data set [3] stood at 24.1 µM. The selectivity ratio in [4] came to 1510; in data set [5], 783.
As for `O=C1c2c(O)c(=O)ccn2N([C@@H](c2ccc(F)c(F)c2)c2ccc(-c3ccccc3)s2)[C@@H]2COCCN12`, the pEC50 is 7.44 in the data set with Influenza A virus [1] and 7.95 with Influenza A virus [2]. For the same compound, the CC50 at 48 h in [3] was 39.8 µM. The selectivity ratio in [4] stood at 1100; in data set [5], 3580.
On the same counts, the results for `O=C1c2c(O)c(=O)ccn2N([C@@H](c2ccccc2)c2cccs2)[C@@H]2COCCN12` are 7.40, 7.66, above 50 µM, above 1260 and above 2300.
As for `O=C1c2c(O)c(=O)ccn2N([C@H](c2ccc3ccccc3c2)c2cccs2)[C@@H]2COCCN12`, the pEC50 in the data set with Influenza A virus [1] is 7.64; in the data set on Influenza A virus [2] it was 7.12. Besides, the CC50 at 48 h in data set [3] stood at 17.2 µM. For the same compound, in data set [4], the selectivity ratio worked out at 752.
With `O=C1c2c(O)c(=O)ccn2N([C@@H](c2ccc3ccccc3c2)c2cccs2)[C@@H]2COCCN12`, the pEC50 in the data set on Influenza A virus [1] was 7.37; with Influenza A virus [2] it was 7.27. The 50% cytotoxic concentration (CC50) at 48 h in [3] amounted to 40.6 µM. Moreover, the selectivity ratio in data set [4] was found to be 960; in data set [5] it was 758.
For the compound `O=C1c2c(O)c(=O)ccn2N([C@@H](c2ccc(Cl)c(Cl)c2)c2cccs2)[C@@H]2COCCN12`, the figures for the pEC50 in the data set on Influenza A virus [1] and with Influenza A virus [2] were 7.35 and 7.22, respectively. Besides, the CC50 at 48 h in data set [3] worked out at 32.6 µM. Besides, the selectivity ratio in data set [4] was 729; in data set [5] it was 539.
On the same counts, the results for `Cc1ccc([C@H](c2cccs2)N2[C@@H]3COCCN3C(=O)c3c(O)c(=O)ccn32)cc1C` are 7.32, 8.09, 20.5 µM, 429 and 2530.
In the case of `O=C1c2c(O)c(=O)ccn2N([C@H](c2ccc(F)c(F)c2)c2cccs2)[C@@H]2COCCN12`, the pEC50 in the data set on Influenza A virus [1] is 8.09; in the data set with Influenza A virus [2] it was 8.51. In addition, the CC50 at 48 h in [3] stood at 25.2 µM. The selectivity ratio is 3140 in data set [4] and 8200 in [5]. The half-life in [6] is 4.45 h; in [7], 7.7 h. Also, the CLint scaled came to 4.68 mL/min/kg in data set [8] and 11.9 mL/min/kg in [9].
As for `O=C1c2c(O)c(=O)ccn2N([C@@H](c2cccs2)c2cc(F)c(F)c(F)c2F)[C@@H]2COCCN12`, the pEC50 in the data set with Influenza A virus [1] is 8.25; in the data set with Influenza A virus [2], 8.11. Besides, in data set [3], the CC50 at 48 h is above 50 µM. The selectivity ratio in data set [4] is above 8860; in data set [5] it was above 6430.
For the compound `O=C1c2c(O)c(=O)ccn2N([C@@H](c2cccc(F)c2)c2cccs2)[C@@H]2COCCN12`, the pEC50 was 8.26 in the data set on Influenza A virus [1] and 7.82 in the data set with Influenza A virus [2]. In data set [3], the CC50 at 48 h is above 50 µM. In addition, the selectivity ratio was above 9020 in data set [4] and above 3290 in [5].
On to `O=C1c2c(O)c(=O)ccn2N([C@H](c2ccc(Cl)c(Cl)c2)c2cccs2)[C@@H]2COCCN12`, for which the pEC50 in the data set on Influenza A virus [1] was 7.25; in the data set with Influenza A virus [2], 7.89. Also, in data set [3], the cytotoxic concentration (CC50) at 48 h was 12.1 µM. Moreover, the selectivity ratio worked out at 215 in [4] and 931 in data set [5].
As for `O=C(O)Cc1ccccc1Nc1c(Cl)cccc1Cl` [DICLOFENAC], the CLint scaled worked out at 221 mL/min/kg in [8] and 136 mL/min/kg in data set [9].
On to `O=C1c2c(O)c(=O)ccn2N([C@H](c2ccc(F)c(F)c2)c2ccc(Br)s2)[C@@H]2COCCN12`, for which the pEC50 in the data set on Influenza A virus [1] was 7.31; with Influenza A virus [2], 7.55. Besides, in [3], the CC50 at 48 h was 17.3 µM. The selectivity ratio in data set [4] came to 353; in data set [5], 613.
